# Test results published in PubChem BioAssay AID1845196 (Molecular Pharmacology Branch, DTP, NCI, 2023).
# Several values for one entry are separate records, joined by “and”; a condition that tells them apart may be missing. Equal values may be shown once.
# System: 292921-168-R tumor spheroid viability
# Assay: Anticancer human tumor 292921-168-R patient-derived pancreatic carcinoma cell line growth inhibition
# Settings: spheroids with HUVEC and MSC; for viability, T/C: stronger effect = lower value
# Outline: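 Single agents and combinations were tested on spheroids built from tumor cells plus HUVEC and hMSC, at half-log dilutions starting at or near clinical Cmax, else 10 microM; final DMSO 0.25% (v/v).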
# [1] = curve of first compound, second compound 30 pM
# [2] = curve of first compound, second compound 94.9 pM
# [3] = curve of first compound, second compound 0.0003 µM
# [4] = curve of first compound, second compound 0.000949 µM
# [5] = curve of first compound, second compound 0.003 µM
# [6] = second compound 30 pM, first compound 0.0316 µM
# [7] = second compound 30 pM, first compound 0.1 µM
# [8] = second compound 30 pM, first compound 0.316 µM
# [9] = second compound 30 pM, first compound 1 µM
# [10] = second compound 30 pM, first compound 3.16 µM
# [11] = second compound 30 pM, first compound 10 µM
# [12] = second compound 94.9 pM, first compound 0.0316 µM
# [13] = second compound 94.9 pM, first compound 0.1 µM
# [14] = second compound 94.9 pM, first compound 0.316 µM
# [15] = second compound 94.9 pM, first compound 1 µM
# [16] = second compound 94.9 pM, first compound 3.16 µM
# [17] = second compound 94.9 pM, first compound 10 µM
# [18] = second compound 0.0003 µM, first compound 0.0316 µM
# [19] = second compound 0.0003 µM, first compound 0.1 µM
# [20] = second compound 0.0003 µM, first compound 0.316 µM
# [21] = second compound 0.0003 µM, first compound 1 µM
# [22] = second compound 0.0003 µM, first compound 3.16 µM
# [23] = second compound 0.0003 µM, first compound 10 µM
# [24] = second compound 0.000949 µM, first compound 0.0316 µM
# [25] = second compound 0.000949 µM, first compound 0.1 µM
# [26] = second compound 0.000949 µM, first compound 0.316 µM
# [27] = second compound 0.000949 µM, first compound 1 µM
# [28] = second compound 0.000949 µM, first compound 3.16 µM
# [29] = second compound 0.000949 µM, first compound 10 µM
# [30] = second compound 0.003 µM, first compound 0.0316 µM
# [31] = second compound 0.003 µM, first compound 0.1 µM
# [32] = second compound 0.003 µM, first compound 0.316 µM
# [33] = second compound 0.003 µM, first compound 1 µM
# [34] = second compound 0.003 µM, first compound 3.16 µM
# [35] = second compound 0.003 µM, first compound 10 µM
# 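Also: spheroids exposed to compounds for 7 days.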
structure (smiles),measurement,setting,value
CC(C)n1c(=O)n(C)c2cnc3cc(F)c(-c4ccc(OCCCN5CCCCC5)nc4)cc3c21 + COc1cc2c(cc1O)CCNC21CSC2c3c(OC(C)=O)c(C)c4c(c3C(COC1=O)N1C(O)C3Cc5cc(C)c(OC)c(O)c5C(C21)N3C)OCO4,IC50,[1],3530 nM
same,IC50,[2],< 31.6 nM
same,IC50,[3],< 31.6 nM
same,IC50,[4],< 31.6 nM
same,IC50,[5],< 31.6 nM
same,"viability, T/C",[6],52.2%
same,"viability, T/C",[7],64.9%
same,"viability, T/C",[8],60%
same,"viability, T/C",[9],64%
same,"viability, T/C",[10],49.6%
same,"viability, T/C",[11],28.1%
same,"viability, T/C",[12],39.2%
same,"viability, T/C",[13],36%
same,"viability, T/C",[14],39%
same,"viability, T/C",[15],35.8%
same,"viability, T/C",[16],38.6%
same,"viability, T/C",[17],23.9%
same,"viability, T/C",[18],20.9%
same,"viability, T/C",[19],21.3%
same,"viability, T/C",[20],20.8%
same,"viability, T/C",[21],24.8%
same,"viability, T/C",[22],29.4%
same,"viability, T/C",[23],19.5%
same,"viability, T/C",[24],2.03%
same,"viability, T/C",[25],2.57%
same,"viability, T/C",[26],2.94%
same,"viability, T/C",[27],4.97%
same,"viability, T/C",[28],7.02%
same,"viability, T/C",[29],5.36%
same,"viability, T/C",[30],0.16%
same,"viability, T/C",[31],0.18%
same,"viability, T/C",[32],0.2%
same,"viability, T/C",[33],0.15%
same,"viability, T/C",[34],0.13%
same,"viability, T/C",[35],0.22%
CC(C)n1c(=O)n(C)c2cnc3cc(F)c(-c4ccc(OCCCN5CCCCC5)nc4)cc3c21,"viability, T/C",compound 0.0316 µM,93.7% and 95.7% and 101%
same,"viability, T/C",compound 0.1 µM,92.2% and 101% and 92.6%
same,"viability, T/C",compound 0.316 µM,92.8% and 93.5% and 87.8%
same,"viability, T/C",compound 1 µM,92.4% and 91.1% and 84%
same,"viability, T/C",compound 3.16 µM,70.3% and 70.5% and 69.1%
same,"viability, T/C",compound 10 µM,29.2% and 26.8% and 32.8%
same,IC50,curve of compound,5580 nM and 5440 nM and 5670 nM
CC1COCCN1c1cc(-c2ccnn2C)c2ccnc(-c3ccn[nH]3)c2n1 (configuration not stated) + Cn1nnc2c(C(N)=O)ncn2c1=O,IC50,"curve of first compound, second compound 1 µM",< 31.6 nM
same,IC50,"curve of first compound, second compound 3.16 µM",< 31.6 nM
same,IC50,"curve of first compound, second compound 10 µM",< 31.6 nM
same,IC50,"curve of first compound, second compound 31.6 µM",< 31.6 nM
same,IC50,"curve of first compound, second compound 100 µM",< 31.6 nM
same,"viability, T/C","second compound 1 µM, first compound 0.0316 µM",29%
same,"viability, T/C","second compound 1 µM, first compound 0.1 µM",15.5%
same,"viability, T/C","second compound 1 µM, first compound 0.316 µM",13%
same,"viability, T/C","second compound 1 µM, first compound 1 µM",13.1%
same,"viability, T/C","second compound 1 µM, first compound 3.16 µM",14.6%
same,"viability, T/C","second compound 1 µM, first compound 10 µM",15.8%
same,"viability, T/C","second compound 3.16 µM, first compound 0.0316 µM",30.4%
same,"viability, T/C","second compound 3.16 µM, first compound 0.1 µM",17.8%
same,"viability, T/C","second compound 3.16 µM, first compound 0.316 µM",14.5%
same,"viability, T/C","second compound 3.16 µM, first compound 1 µM",13%
same,"viability, T/C","second compound 3.16 µM, first compound 3.16 µM",14.2%
same,"viability, T/C","second compound 3.16 µM, first compound 10 µM",15.8%
same,"viability, T/C","second compound 10 µM, first compound 0.0316 µM",27.9%
same,"viability, T/C","second compound 10 µM, first compound 0.1 µM",16.2%
same,"viability, T/C","second compound 10 µM, first compound 0.316 µM",12.1%
same,"viability, T/C","second compound 10 µM, first compound 1 µM",12.8%
same,"viability, T/C","second compound 10 µM, first compound 3.16 µM",15.2%
same,"viability, T/C","second compound 10 µM, first compound 10 µM",15.6%
same,"viability, T/C","second compound 31.6 µM, first compound 0.0316 µM",24.3%
same,"viability, T/C","second compound 31.6 µM, first compound 0.1 µM",17.9%
same,"viability, T/C","second compound 31.6 µM, first compound 0.316 µM",12.5%
same,"viability, T/C","second compound 31.6 µM, first compound 1 µM",12.8%
same,"viability, T/C","second compound 31.6 µM, first compound 3.16 µM",13.9%
same,"viability, T/C","second compound 31.6 µM, first compound 10 µM",15.3%
same,"viability, T/C","second compound 100 µM, first compound 0.0316 µM",16.9%
same,"viability, T/C","second compound 100 µM, first compound 0.1 µM",11.8%
same,"viability, T/C","second compound 100 µM, first compound 0.316 µM",9.95%
same,"viability, T/C","second compound 100 µM, first compound 1 µM",11.3%
same,"viability, T/C","second compound 100 µM, first compound 3.16 µM",13%
same,"viability, T/C","second compound 100 µM, first compound 10 µM",14.7%
Cc1cc(C)c(CNC(=O)c2cc(-c3ccc(CN4CCOCC4)cc3)cc3c2cnn3C2CCCC2)c(=O)[nH]1 + COc1cc2c(cc1O)CCNC21CSC2c3c(OC(C)=O)c(C)c4c(c3C(COC1=O)N1C(O)C3Cc5cc(C)c(OC)c(O)c5C(C21)N3C)OCO4,IC50,[1],> 10000 nM
same,IC50,[2],> 10000 nM
same,IC50,[3],629 nM
same,IC50,[4],< 31.6 nM
same,IC50,[5],< 31.6 nM
same,"viability, T/C",[6],99.1%
same,"viability, T/C",[7],113%
same,"viability, T/C",[8],110%
same,"viability, T/C",[9],109%
same,"viability, T/C",[10],101%
same,"viability, T/C",[11],84.2%
same,"viability, T/C",[12],97.7%
same,"viability, T/C",[13],107%
same,"viability, T/C",[14],108%
same,"viability, T/C",[15],102%
same,"viability, T/C",[16],101%
same,"viability, T/C",[17],78%
same,"viability, T/C",[18],50%
same,"viability, T/C",[19],55.4%
same,"viability, T/C",[20],47.4%
same,"viability, T/C",[21],49%
same,"viability, T/C",[22],48%
same,"viability, T/C",[23],40.5%
same,"viability, T/C",[24],5.06%
same,"viability, T/C",[25],5.13%
same,"viability, T/C",[26],5.06%
same,"viability, T/C",[27],3.5%
same,"viability, T/C",[28],3.21%
same,"viability, T/C",[29],4.34%
same,"viability, T/C",[30],0.15%
same,"viability, T/C",[31],0.18%
same,"viability, T/C",[32],0.17%
same,"viability, T/C",[33],0.15%
same,"viability, T/C",[34],0.17%
same,"viability, T/C",[35],0.23%
